Experimental data as given in USRE48461E1, “Modulation of androgen receptor expression” (Ionis Pharmaceuticals, Inc., priority 2012, dated 2021).
Oligonucleotides are written 5' to 3', each unit as a sugar letter and its base; * is a phosphorothioate linkage, no mark a phosphodiester; rarer units and linkages stand in square brackets, end groups in braces. Plain capitals give the bases only. k = constrained ethyl (cEt); [5mC] = 5-methylcytosine; d = 2'-deoxy (DNA)

Assays:
AR mRNA [1] = test: Dose-dependent antisense inhibition of human AR in HuVEC cells (electroporation, qRT-PCR RTS3559, IC50); format: cell-based; details: HuVEC, ~16 h
Method: (§1) After a treatment period of approximately 16 hours, RNA was isolated from the cells and AR mRNA levels were measured by quantitative real-time PCR. Human AR primer probe set RTS3559 was used to measure mRNA levels. AR mRNA levels were adjusted according to total RNA content, as measured by RIBOGREEN®. […] The antisense oligonucleotides were tested in a series of experiments that had similar culture conditions.
as §1, §1, §1, §1
(§2) After a treatment period of approximately 16 hours, RNA was isolated from the cells and AR mRNA levels were measured by quantitative real-time PCR. Human AR primer probe set RTS3559 was used to measure mRNA levels. AR mRNA levels were adjusted according to total RNA content, as measured by RIBOGREEN®.
as §2

AR mRNA [2] = test: Antisense inhibition of human AR in HuVEC cells, single concentration (electroporation, qRT-PCR RTS3559); format: cell-based; details: 500 nM ASO, electroporation, ~24 h
Method: Antisense oligonucleotides were designed targeting an AR nucleic acid and were tested for their effects on AR mRNA in vitro. The antisense oligonucleotides were tested in a series of experiments that had similar culture conditions. […] Human primer probe set RTS3559 (forward sequence [NT], designated herein as SEQ ID NO: 9; reverse sequence [NT], designated herein as SEQ ID NO: 10; probe sequence [NT], designated herein as SEQ ID NO: 11) was used to measure mRNA levels. AR mRNA levels were adjusted according to total RNA content, as measured by RIBOGREEN®. […] A total of 155 oligonucleotides were tested. Additional antisense oligonucleotides were designed targeting an AR nucleic acid and were tested for their effects on AR mRNA in vitro. […] Human primer probe set RTS3559 was used to measure mRNA levels. AR mRNA levels were adjusted according to total RNA content, as measured by RIBOGREEN®. […] A total of 82 oligonucleotides were tested. Additional antisense oligonucleotides were designed targeting an AR nucleic acid and were tested for their effects on AR mRNA in vitro. […] Human primer probe set RTS3559 was used to measure mRNA levels. AR mRNA levels were adjusted according to total RNA content, as measured by RIBOGREEN®. […] A total of 40 oligonucleotides were tested. Additional antisense oligonucleotides were designed targeting an AR nucleic acid and were tested for their effects on AR mRNA in vitro. […] Human primer probe set RTS3559 was used to measure mRNA levels. AR mRNA levels were adjusted according to total RNA content, as measured by RIBOGREEN®. […] A total of 75 oligonucleotides were tested. Additional antisense oligonucleotides were designed targeting an AR nucleic acid and were tested for their effects on AR mRNA in vitro. […] Human primer probe set RTS3559 was used to measure mRNA levels. AR mRNA levels were adjusted according to total RNA content, as measured by RIBOGREEN®. […] A total of 616 oligonucleotides were tested. Additional antisense oligonucleotides were designed targeting an AR nucleic acid and were tested for their effects on AR mRNA in vitro. […] Human primer probe set RTS3559 was used to measure mRNA levels. AR mRNA levels were adjusted according to total RNA content, as measured by RIBOGREEN®. […] A total of 385 oligonucleotides were tested.

## 549377 (kA*kG*kG*dA*dT*dG*dA*dG*dG*dA*dA*dG*d[5mC]*kG*kG*k[5mC]; antisense) [compound 549377]
AR mRNA [1]; 55.6 nM, Table 3
  percent inhibition of AR: 13%
AR mRNA [1]; 166.7 nM, Table 3
  percent inhibition of AR: 52%
AR mRNA [1]; 500.0 nM, Table 3
  percent inhibition of AR: 72%
AR mRNA [1]; 1500.0 nM, Table 3
  percent inhibition of AR: 93%
AR mRNA [1]; Table 3
  IC50: 216 nM
AR mRNA [2]; Table 1
  % inhibition: 90%

## 549379 (kG*k[5mC]*kT*d[5mC]*d[5mC]*d[5mC]*dG*d[5mC]*d[5mC]*dT*d[5mC]*dG*d[5mC]*k[5mC]*kG*k[5mC]; antisense) [compound 549379]
AR mRNA [1]; 55.6 nM, Table 3
  percent inhibition of AR: 11%
AR mRNA [1]; 166.7 nM, Table 3
  percent inhibition of AR: 51%
AR mRNA [1]; 500.0 nM, Table 3
  percent inhibition of AR: 68%
AR mRNA [1]; 1500.0 nM, Table 3
  percent inhibition of AR: 88%
AR mRNA [1]; Table 3
  IC50: 237 nM
AR mRNA [2]; Table 1
  % inhibition: 86%

## 549381 (kG*k[5mC]*k[5mC]*dG*d[5mC]*d[5mC]*dA*dG*dG*dG*dT*dA*d[5mC]*k[5mC]*kA*k[5mC]; antisense) [compound 549381]
AR mRNA [1]; 55.6 nM, Table 3
  percent inhibition of AR: 14%
AR mRNA [1]; 166.7 nM, Table 3
  percent inhibition of AR: 33%
AR mRNA [1]; 500.0 nM, Table 3
  percent inhibition of AR: 71%
AR mRNA [1]; 1500.0 nM, Table 3
  percent inhibition of AR: 91%
AR mRNA [1]; Table 3
  IC50: 261 nM
AR mRNA [2]; Table 1
  % inhibition: 89%

## 549383 (k[5mC]*k[5mC]*kA*dA*dA*d[5mC]*dG*d[5mC]*dA*dT*dG*dT*d[5mC]*k[5mC]*k[5mC]*k[5mC]; antisense) [compound 549383]
AR mRNA [1]; 55.6 nM, Table 3
  percent inhibition of AR: 10%
AR mRNA [1]; 166.7 nM, Table 3
  percent inhibition of AR: 34%
AR mRNA [1]; 500.0 nM, Table 3
  percent inhibition of AR: 75%
AR mRNA [1]; 1500.0 nM, Table 3
  percent inhibition of AR: 88%
AR mRNA [1]; Table 3
  IC50: 270 nM
AR mRNA [2]; Table 1
  % inhibition: 88%

## 549387 (kA*kG*k[5mC]*dT*dT*d[5mC]*dA*dT*d[5mC]*dT*d[5mC]*d[5mC]*dA*k[5mC]*kA*kG; antisense) [compound 549387]
AR mRNA [1]; 55.6 nM, Table 4
  percent inhibition of AR: 9%
AR mRNA [1]; 166.7 nM, Table 4
  percent inhibition of AR: 41%
AR mRNA [1]; 500.0 nM, Table 4
  percent inhibition of AR: 68%
AR mRNA [1]; 1500.0 nM, Table 4
  percent inhibition of AR: 92%
AR mRNA [1]; Table 4
  IC50: 261 nM
AR mRNA [2]; Table 1
  % inhibition: 84%

## 549388 (kT*k[5mC]*k[5mC]*d[5mC]*dT*dT*d[5mC]*dA*dG*d[5mC]*dG*dG*d[5mC]*kT*k[5mC]*kT; antisense) [compound 549388]
AR mRNA [1]; 55.6 nM, Table 3
  percent inhibition of AR: 15%
AR mRNA [1]; 166.7 nM, Table 3
  percent inhibition of AR: 42%
AR mRNA [1]; 500.0 nM, Table 3
  percent inhibition of AR: 36%
AR mRNA [1]; 1500.0 nM, Table 3
  percent inhibition of AR: 86%
AR mRNA [1]; Table 3
  IC50: 428 nM
AR mRNA [2]; Table 1
  % inhibition: 88%

## 549414 (kG*kT*kT*d[5mC]*dA*dT*dT*d[5mC]*dG*dA*dA*dG*dT*kT*k[5mC]*kA) [compound 549414]
AR mRNA [1]; 55.6 nM, Table 4
  percent inhibition of AR: 21%
AR mRNA [1]; 166.7 nM, Table 4
  percent inhibition of AR: 35%
AR mRNA [1]; 500.0 nM, Table 4
  percent inhibition of AR: 53%
AR mRNA [1]; 1500.0 nM, Table 4
  percent inhibition of AR: 76%
AR mRNA [1]; Table 4
  IC50: 366 nM
AR mRNA [2]; Table 2
  % inhibition: 81%

## 549432 (kG*kA*kG*dG*dA*dT*d[5mC]*dA*dT*d[5mC]*dA*d[5mC]*dA*kG*kA*kT) [compound 549432]
AR mRNA [1]; 55.6 nM, Table 4
  percent inhibition of AR: 15%
AR mRNA [1]; 166.7 nM, Table 4
  percent inhibition of AR: 46%
AR mRNA [1]; 500.0 nM, Table 4
  percent inhibition of AR: 80%
AR mRNA [1]; 1500.0 nM, Table 4
  percent inhibition of AR: 92%
AR mRNA [1]; Table 4
  IC50: 179 nM
AR mRNA [2]; Table 2
  % inhibition: 90%
